In patent publication US20100093064A1, “Metagenomic Functional Selection” (PRESIDENT AND FELLOWS OF HARVARD COLLEGE, priority 2008, published 2010):

Experiments:
[1] = test system: E. coli; assay: Selective inhibitory concentration of lignocellulosic compounds in LB-agar; assay type: cell-based, Escherichia coli; details: 48 hours of growth at 37° C., lowest concentration tested which prevented colony formation
Experimental: The inhibitory concentrations of 14 lignocellulosic compounds in LB-agar (Table 2) were determined for two versions of the E. coli strain used to create the mgDNA libraries—a strain with a control pCC1FOS fosmid insert containing E. coli genomic DNA, and an untransformed strain. […] A range of concentrations for each lignocellulosic compound were tested, based on inhibitory concentrations for E. coli previously reported (1-3).

[2] = test system: oral and gut human-associated microbiome isolates; assay: Antibiotic resistance profiling of human-associated microbiome isolates; assay type: cell-based, bacteria isolated from human sputum and fecal samples; details: for Microbiome isolates resistant, on average: 1102 oral and gut isolates, antibiotic 20 mg/L in LB
Experimental: Three sputum samples (oral microbiomes) and two fecal samples (gut microbiomes) were collected from three healthy volunteers at three different sampling times (day 1, 140 and 141), and fresh samples were plated on Luria broth (LB) agar. […]. Cultures were incubated for 16 hours at 37° C. and growth was assayed by absorption at 600 nm.

[3] = test system: E. coli; assay: Kinetic growth / biomass yield analysis in liquid LB-chlor with inhibitor; assay type: cell-based, Escherichia coli; details: for Improvement in biomass yield due to selected metagenomic insert: vs E. coli control, at the inhibitor concentration giving 90% reduction of wild type biomass yield, mgFurAc/2-furoic acid, mgSyrAld/syringaldehyde, mgMetCat/4-methylcatechol; for Inhibitor concentration resulting in 90% reduction in growth yield: wild-type/control E. coli, 24 hours of growth at 37° C.
Experimental: […] DNA library clones conferring tolerance to each of three inhibitors were chosen for further analysis of encoded functional parts from the selected inhibitor plates. For 4-methycatechol, 5 tolerant clones each were chosen from selected mgDNA libraries 1, 3, 4, and 5 (FIG. 2A). For 2-furoic acid, 6-7 tolerant clones each were chosen from selected mgDNA libraries 1, 3 and 4 (FIG. 2A). For syringaldehyde, 10 tolerant clones each were chosen from selected mgDNA libraries 4 and 5 (FIG. 2A). Each colony was grown to saturation (16-18 hours) at 37° C. with shaking in liquid LB medium containing 12.5 μg/mL-chloramphenicol (hereon referred to as LB-chlor). Saturated cultures were diluted 1:40 in fresh LB-chlor and grown to mid-log phase (1-2 hours) at 37° C. with shaking. Log-phase cultures were inoculated (1:40) into LB-chlor containing one of three concentrations of the relevant inhibitor (4-methylcatechol: 0.2, 0.6 and 1 g/L; 2-furoic acid: 0.8, 7.9, 15 g/L; syringaldehyde: 1.55, 1.775 and 2 g/L), with concentrations chosen to sparsely span the range of previously reported inhibitory concentrations of these compounds (J. Zaldivar, L. O. Ingram, Biotechnol Bioeng 66, 203 (1999); J. Zaldivar, A. Martinez, L. O. Ingram, Biotechnol Bioeng 65, 24 (Oct. 5, 1999); J. Zaldivar, A. Martinez, L. O. Ingram, Biotechnol Bioeng 68, 524 (Jun. 5, 2000)). Biomass yield after 24 hours of growth at 37° C. with shaking was determined by end-point turbidity measurements at 600 nm using a Versamax microplate reader (Molecular Devices).
Three mgDNA clones per inhibitor with the highest biomass differential when compared to the E. coli control were chosen for kinetic growth analysis. Growth kinetics were measured at 11 concentrations per inhibitor, evenly spanning the following concentration ranges: 0-1 g/L 4-methylcatechol, 0-1.5 g/L 2-furoic acid, and 0-3 g/L syringaldehyde. Kinetic measurements were done in triplicate for each mgDNA clone and E. coli control by 600 nm measurements every 5 minutes over 24 hours at 37° C. with shaking in a Versamax microplate reader.
To determine whether the observed tolerance in the selected clones was a result of functional parts encoded by mgDNA, fosmids from the 3 kinetically characterized mgDNA clones per inhibitor were extracted using the FosmidMAX DNA Purification Kit (catalog #FMAX046, Epicentre Biotechnologies). Purified fosmids were then retransformed into an electro-competent version of the same control E. coli strain using a standard electroporation protocol. 3 transformant colonies for each of the 3 kinetically characterized mgDNA clones per inhibitor were chosen for a repeat of the inhibitor tolerance kinetic growth analysis (see above). All of the retransformed fosmids for 4-methylcatechol and 2-furoic acid and 2 of the 3 retransformed fosmids for syringaldehyde recapitulated the improved inhibitor tolerance compared to the E. coli control seen for the original mgDNA selected clones. […] Kinetic growth plots for the mgDNA clone with the best improvements in biomass yield at these concentrations per inhibitor are shown in FIG. 4, over a range of inhibitor concentrations. These selected clones were from mgDNA library 3 for 2-furoic acid (mgFurAc), library 4 for syringaldehyde (mgSyrAld), and library 3 for 4-methylcatechol (mgMetCat).

| SMILES | Inhibitory Concentration [1] [g/L] | further results |
| --- | --- | --- |
| CC(=O)O [Acetic Acid] | 5.00 |  |
| CCO [Ethanol] | 55.00 |  |
| COc1cc(C(=O)O)ccc1O [Vanillic acid] | 8.08 |  |
| COc1cc(C(=O)O)cc(OC)c1O [Syringic acid] | 9.55 |  |
| O=C(O)c1cn(C2CC2)c2cc(N3CCNCC3)c(F)cc2c1=O [ciprofloxacin] |  | Microbiome isolates resistant, on average [2]: 26% |
| Oc1ccc(O)cc1 [Hydroquinone] | 1.85 |  |
| C[C@H]1COc2c(N3CCN(C)CC3)c(F)cc3c(=O)c(C(=O)O)cn1c23 [levofloxacin] |  | Microbiome isolates resistant, on average [2]: 22% |
| Cc1ccc(O)c(O)c1 [Methylcatechol, 4-methylcatechol] | 0.20 | Improvement in biomass yield due to selected metagenomic insert [3]: 6.0 fold; Inhibitor concentration resulting in 90% reduction in growth yield [3]: 0.33 g/L |
| CC1(C)S[C@@H]2[C@H](NC(=O)C(C(=O)O)c3ccccc3)C(=O)N2[C@H]1C(=O)O (some centres unmarked) [carbenicillin] |  | Microbiome isolates resistant, on average [2]: 39% |
| COc1cc(C=O)cc(OC)c1O [Syringaldehyde] | 1.55 | Improvement in biomass yield due to selected metagenomic insert [3]: 5.7 fold; Inhibitor concentration resulting in 90% reduction in growth yield [3]: 1.33 g/L |
| O=Cc1ccc(O)cc1 [4-hydroxy-benzaldhehyde] | 1.25 |  |
| O=CO [Formic acid] | 1.15 |  |
| O=C(N[C@H](CO)[C@H](O)c1ccc([N+](=O)[O-])cc1)C(Cl)Cl [chloramphenicol] |  | Microbiome isolates resistant, on average [2]: 7%; Susceptibility of gut microbiome isolates ([2]; gut isolates from all sampling times, 20 mg/L): almost completely susceptible; O3 day 1 isolates resistant ([2]; oral microbiome O3, day 1, 20 mg/L): 87% |
| O=Cc1ccco1 [Furfural] | 2.95 |  |
| O=C(O)c1ccc(O)cc1 [4-hydrobenzoic acid] | 7.90 |  |
| CC(=O)CCC(=O)O [Levulinic acid] | 3.00 |  |
| COc1cc(C=O)ccc1O [Vanillin] | 1.50 |  |
| O=C(O)c1ccco1 [2-Furoic acid] | 0.80 | Improvement in biomass yield due to selected metagenomic insert [3]: 6.9 fold; Inhibitor concentration resulting in 90% reduction in growth yield [3]: 1.05 g/L |
